According to patent US20180327367A1, “MACROCYCLIC BROAD SPECTRUM ANTIBIOTICS” (priority 2015, published 2018):
Values after ≈ are worked out from the molar mass of the structure shown. Read-outs that look alike come from different tables or passages of the source.

How the values were obtained:
[1] = tested on: Escherichia coli ATCC 25922; test: Minimum inhibitory concentration, broth micro-dilution (CLSI), E. coli; assay type: cell-based; details: Escherichia coli, ATCC25922, 22 h, 35° C., 22 hours
[2] = target: T1, SpsB (Staphylococcus aureus signal peptidase) (Staphylococcus aureus, UniProt P0A070); test: cell-based; assay type: biochemical; details: SpsB IC50, whole-cell S. aureus (USA300 background, overexpressing SpsB) as SpsB source; fluorogenic peptide substrate, kinetic read 30 min
T1 construct: This assay uses a suspension of Staphylococcus aureus cells as a source of SpsB instead of recombinant SpsB protein; endogenous in cells; host or cells: S. aureus, USA300 background, overexpressing SpsB (whole-cell suspension from frozen pellets)
How it was run: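 Cleavage of an internally quenched (Dabcyl)βAla-KPAKAAE(Edans) peptide, added as 20 μM solution mixed 1:1 with cells, was followed for 30 min at 340/490 nm. SpsB came from a suspension of SpsB-overexpressing USA300 S. aureus in Tween-80-containing PBS buffer. Slopes plotted against 3-fold compound dilutions gave IC50.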

[3] = tested on: Methicillin Resistant Staphylococcus aureus strain USA 300, NRS384; test: Minimum inhibitory concentration, broth micro-dilution (CLSI), S. aureus; assay type: cell-based; details: Staphylococcus aureus, MRSA / NRS 384 / USA300, 22 h, 35° C., 22 hours
How it was run: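 Colonies grown 20 hours at 35° C were suspended in cation-adjusted Mueller Hinton Broth with 0.002% Tween-80. Cells were then added to 2-fold compound dilutions starting at 4 or 0.5 μg/mL, at OD600 0.0005.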

[4] = tested on: Escherichia coli MC4100 harboring the IMP4213 (E. coli IMP); test: microbe, parasite or virus in culture; assay type: cell-based; details: Escherichia coli, 22 h, read-out: MIC (μg/mL) E. coli IMP, E. coli MC4100 IMP4213, increased outer-membrane permeability; 35° C., 22 hours
How it was run: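 Ten 2-fold dilutions, from 4 μg/mL or from 0.5 μg/mL depending on protocol, are challenged with bacteria at OD600 0.0005 in Tween-80-supplemented cation-adjusted Mueller Hinton Broth. Plates incubate 22 hours at 35° C per CLSI. The E. coli IMP4213 strain has increased outer-membrane permeability.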

[5] = read-out: MIC (μg/mL) E. coli, E. coli ATCC 25922
[6] = read-out: MIC (μg/mL) S. aureus, MRSA USA 300 NRS384
[7] = E. coli ATCC 25922, read-out: MIC (μg/mL) E. coli
[8] = MRSA USA 300 NRS384, read-out: MIC (μg/mL) S. aureus

T1 sequence (P0A070 whole entry): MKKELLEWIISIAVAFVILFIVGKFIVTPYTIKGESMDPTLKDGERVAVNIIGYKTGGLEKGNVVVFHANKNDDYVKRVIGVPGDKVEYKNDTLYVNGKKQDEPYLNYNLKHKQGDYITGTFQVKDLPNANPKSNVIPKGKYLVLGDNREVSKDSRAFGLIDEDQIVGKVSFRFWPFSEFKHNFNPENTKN

| SMILES | MIC [1, 5] | IC50 [2] | MIC [3, 6] | MIC [4] | MIC [1, 7] | MIC [3, 8] |
| --- | --- | --- | --- | --- | --- | --- |
| CCCCCCCCc1ccc(C(=O)N[C@@H](CCN)C(=O)N(C)[C@@H]2C(=O)N[C@@H](C)C(=O)N[C@H](C(=O)NCC#N)Cc3ccc(OCCN)c(c3)-c3cc2ccc3OCCN)c(CC(N)=O)c1 [Compound 448] | 0.75 µg/mL (≈ 0.823 µM) | 0.93 nM | 0.023 µg/mL (≈ 0.0252 µM) | 0.016 µg/mL (≈ 0.0176 µM) |  |  |
| CCCCCCCCc1ccc(C(=O)N[C@@H](CCN)C(=O)N(C)[C@@H]2C(=O)N[C@@H](C)C(=O)N[C@H](C(=O)NCC#N)Cc3ccc(OCCN)c(c3)-c3cc2ccc3OCCN)c(/C=C/C(N)=O)c1 [Compound 450] |  | 0.66 nM |  | 0.063 µg/mL (≈ 0.0682 µM) | 16 µg/mL (≈ 17.3 µM) | 0.13 µg/mL (≈ 0.141 µM) |
| CCCCCCCCCCCC(=O)N[C@@H](CC#N)C(=O)N(C)[C@@H]1C(=O)N[C@@H](C)C(=O)N[C@H](C(=O)NCC#N)Cc2ccc(OCCN)c(c2)-c2cc1ccc2OCCN [Compound 453] | 16 µg/mL (≈ 19.6 µM) | 2.3 nM | 0.13 µg/mL (≈ 0.159 µM) | 0.13 µg/mL (≈ 0.159 µM) |  |  |
| CCCCCCCCCCCC(=O)N[C@@H](CCn1cncn1)C(=O)N(C)[C@@H]1C(=O)N[C@@H](C)C(=O)N[C@H](C(=O)NCC#N)Cc2ccc(OCCN)c(c2)-c2cc1ccc2OCCN [Compound 454] |  | 1.8 nM |  | 0.13 µg/mL (≈ 0.149 µM) | 32 µg/mL (≈ 36.7 µM) | 0.13 µg/mL (≈ 0.149 µM) |
| CCCCCCCCc1ccc(C(=O)N[C@@H](CCCN)C(=O)N(C)[C@@H]2C(=O)N[C@@H](C)C(=O)N[C@H](C(=O)NCC#N)Cc3ccc(OCCCN)c(c3)-c3cc2ccc3OCCCN)cc1 [Compound 457] |  | 0.64 nM |  | 0.0078 µg/mL (≈ 0.0087 µM) | 0.25 µg/mL (≈ 0.279 µM) | 0.047 µg/mL (≈ 0.0524 µM) |
| CCCCCCCCCCCCCC(=O)N(C)[C@@H]1C(=O)N[C@@H](C)C(=O)N[C@H](C(=O)NCC#N)Cc2ccc(OCCN(C)C)c(c2)-c2cc1ccc2OCCN(C)C [Compound 460] |  | 14 nM |  | 1.5 µg/mL (≈ 1.87 µM) | 16 µg/mL (≈ 19.9 µM) | 2 µg/mL (≈ 2.49 µM) |
| C[C@@H]1NC(=O)[C@@H](N(C)C(=O)CCNCc2ccc(-c3ccc(Cl)cc3)cc2)c2ccc(OCCN)c(c2)-c2cc(ccc2OCCN)C[C@@H](C(=O)NCC#N)NC1=O [Compound 461] |  | 0.74 nM |  | 4 µg/mL (≈ 4.94 µM) | > 64 µg/mL | 0.063 µg/mL (≈ 0.0778 µM) |
| CCCCCc1ccc(CNCCC(=O)N(C)[C@@H]2C(=O)N[C@@H](C)C(=O)N[C@H](C(=O)NCC#N)Cc3ccc(OCCN)c(c3)-c3cc2ccc3OCCN)c(C)c1 [Compound 462] |  | 0.81 nM |  | 4 µg/mL (≈ 5.11 µM) | 64 µg/mL (≈ 81.7 µM) | 0.094 µg/mL (≈ 0.12 µM) |
| CCCCCCCCCC(=O)NCC(=O)N(C)[C@@H]1C(=O)N[C@@H](C)C(=O)N[C@H](C(=O)NCC#N)Cc2ccc(OCCN)c(c2)-c2cc1ccc2OCCN [Compound 463] |  | 3.2 nM |  | 0.5 µg/mL (≈ 0.668 µM) | > 64 µg/mL | 0.5 µg/mL (≈ 0.668 µM) |
| CCCCCCCCCC(=O)NCCC(=O)N(C)[C@@H]1C(=O)N[C@@H](C)C(=O)N[C@H](C(=O)NCC#N)Cc2ccc(OCCN)c(c2)-c2cc1ccc2OCCN [Compound 464] |  | 6 nM |  | > 4 µg/mL | > 64 µg/mL | 1 µg/mL (≈ 1.31 µM) |
| CCCCCCCCCCCCCC(=O)N[C@@H](CC)C(=O)N(C)[C@@H]1C(=O)N[C@@H](C)C(=O)N[C@H](C(=O)NCC#N)Cc2ccc(OCCN)c(c2)-c2cc1ccc2OCCN [Compound 465] |  | 1.6 nM |  | 0.19 µg/mL (≈ 0.228 µM) | 4 µg/mL (≈ 4.8 µM) | 0.094 µg/mL (≈ 0.113 µM) |
| CCCCCCCCCCCC(=O)N[C@@H](CCCCN)C(=O)N(C)[C@@H]1C(=O)N[C@@H](C)C(=O)N[C@H](C(=O)NCC#N)Cc2ccc(O)c(c2)-c2cc1ccc2O [Compound 468] |  | 3.4 nM |  | 0.5 µg/mL (≈ 0.656 µM) | 64 µg/mL (≈ 84 µM) | 0.19 µg/mL (≈ 0.249 µM) |
| CCCCCCCCCCNCCC(=O)N[C@@H](CO)C(=O)N(C)[C@@H]1C(=O)N[C@@H](C)C(=O)N[C@H](C(=O)NCC#N)Cc2ccc(O)c(c2)-c2cc1ccc2O [Compound 469] |  | 5 nM |  | > 4 µg/mL | > 64 µg/mL | 4 µg/mL (≈ 5.33 µM) |
| CCCCCCCCc1ccc(C(=O)N[C@@H](CCCCN)C(=O)N(C)[C@@H]2C(=O)N[C@@H](C)C(=O)N[C@H](C(=O)NCC#N)Cc3ccc(OC)c(c3)-c3cc2ccc3OC)cc1 [Compound 470] |  | 24 nM |  | 0.5 µg/mL (≈ 0.607 µM) | > 64 µg/mL | 3 µg/mL (≈ 3.64 µM) |
